Literature values, collected in patent publication US20100047176A1, “Method and Kit for Testing Stress Effects in Living Organisms” (AARHUS UNIVERSITET, priority 2007, published 2010).
Values after ≈ are worked out from the molar mass of the structure shown.

Experiments:
[1] = system: fish and aquatic invertebrates; details: if it reaches water bodies
[2] = at 25° C.

CCC(CC)Nc1c([N+](=O)[O-])cc(C)c(C)c1[N+](=O)[O-] [Pendimethalin]
toxicity to fish / aquatic invertebrates [1]: toxic to fish

O=C(O)CNCP(=O)(O)O [Glyphosate]
water solubility [2]: 11.6 mg/mL (≈ 68.6 mM)
